Patent US20190269801A1 (CEDARS-SINAI MEDICAL CENTER, priority 2016, published 2019)
Where two headings read alike, the source gives them in different places. Values belong to the compound of their own block, whether it stands above or below them.

Legend:
[1] = test system: ex vivo expanded CTCs from PC patients and LNCaP and C4-2B cells from mouse bone marrow, 3-D spheroids; assay: Viability/apoptosis of PC CTCs and bone marrow-derived LNCaP and C4-2B grown as 3-D spheroids; type: cell-based, human
Experimental: (§1) Immortalized PC cell lines (PC3, LNCaP, C4-2, C4-2B, 22Rv1) and 3-D spheroid growth of mouse bone marrow-derived LNCaP and C4-2B and ex vivo expanded CTCs from patients were used. […] Induction of apoptosis was assessed by caspase 3/7 luminescent assay. Growth inhibitory effects were compared between 2-D and 3-D. Senescent luciferase-tagged LNCaP and C4-2B cells from mouse bone marrow regained growth potential when propagated in vitro as 3D spheroids. RPMI medium supplemented with 10% FBS and 1% penicillin/streptomycin was used to grow CTCs in vitro.

Resistant C4-2B PC cells = assay: Growth inhibition of AA/EZ resistant C4-2B PC cells cultured as 2D monolayer; type: cell-based; settings: Homo sapiens
[2] = test system: PC cell lines (PC3, LNCaP, C4-2, C4-2B, 22Rv1); assay: Viability of immortalized prostate cancer cell lines grown as 2D monolayers; type: cell-based, human; settings: 72 hours of drug exposure
Experimental: as §1

Naive C4-2B PC cells = assay: Growth inhibition of naive C4-2B PC cells cultured as 2D monolayer; settings: for IC50: Homo sapiens
microtubule = assay: Microtubule dynamics in PC cells; type: cell-based
Experimental: Microtubule dynamics are measured in NIR-SM or SM treated PC cells in the presence or absence of DT according to published protocols. Microtubule dynamics are assessed by fluorescence imaging methods, where immunolabeled tubulin is the readout for measurements of polarized forced generation, contractility and response to substrate stiffness measured in the presence of DT using established protocols. […] We test other agents, such as nocodazole and vincristine, which without being bound by theory we hypothesize block the polymerization of tubulin into microtubules, and cold temperature that can cause a rapid depolymerization of microtubules. With these controls, we determine if NIR-SM or SM may differ in enhancing the activity of DT in promoting microtubule polymerization in PC cells.

[3] = test system: renal (ACHN, o-786, SKRC, Caki-1), breast (MCF-7), lung (H358), liver (HepG2), prostate (PC3, LNCaP, C4-2B), pancreatic (MIAPaCa II) and glioblastoma (U87) …; assay: Cell inhibition by NIR-783 dye in a cancer cell line panel; type: cell-based; settings: in vitro
PC3 tumor xenograft = settings: PC3 tumors in mouse; listed as dye-simvastatin
PDAC tumors = settings: imaged 3 days after i.p. administration
human PC cell lines = assay: IC50 in commonly used human PC cell lines; type: cell-based
[4] = test system: ex vivo propagated CTCs from human PC patients (3D spheroids); assay: Cytotoxicity in ex vivo propagated prostate cancer CTCs grown as 3D spheroids
[5] = test system: PC cells, 3D spheroids vs 2D monolayer; settings: average
[6] = test system: ovarian tumor cells OV90 and OVCA433; settings: in vitro
[7] = test system: Prostate circulating tumor cells CTC 864; settings: 4 μM, 24 hours; vs control, docetaxel 1.25 μM, abiraterone acetate 3.125 μM
[8] = test system: pancreatic and breast cancer CTCs; settings: 3-D spheroids
[9] = test system: ex vivo propagated CTCs from human PC patients (3D spheroids)
[10] = test system: Ramos, a B-cell lymphoma, 3-D spheroids; assay: Cytotoxicity in Ramos B-cell lymphoma 3-D spheroids; type: cell-based
bcl-2 = bcl-2 western blot in BL cell lines; type: cell-based, human
[11] = test system: Namalwa and Raji cell lines; assay: Apoptosis by caspase 3/7 luminescent assay and western blot in BL cell lines; type: cell-based, human; settings: 24 hours of drug exposure, 8, 16, 32 μM
Experimental: Namalwa cells are cultured in RPMI 1640, 10% fetal bovine serum, 1% PenStrep, and placed in a humidified atmosphere containing 5% CO2 at 37° C. 10,000-15,000 cells/well are seeded in 96 white wall well plates in 100 microliter medium/per well for 24 h. […] 100 microliters of Caspase-Glo 3/7 assay is added and luminescence is then read. Caki-1 cells are cultured in RPMI 1640, 10% fetal bovine serum, 1% PenStrep, and placed in a humidified atmosphere containing 5% CO2 at 37° C. 5,000 cells/well are seeded in 96 white wall well plates in 100 microliter medium/per well for 24 h. […] 100 microliters of Caspase-Glo 3/7 assay is added and luminescence is then read.

[12] = test system: B-cell lymphoma cell lines Namalwa, Raji, CA46, Ramos, Daudi; assay: Growth and viability of B-cell Burkitt's lymphoma cell lines, MTT, 72 h; type: cell-based, human; settings: 72 h exposure; range over all BL cell lines tested
Experimental: (§2) 5,000 cells/well renal cancer cells and 10,000 cells/well lymphoma cells are seeded in 96 well plates in 100 microliter medium/per well for 24 h. […] Renal cancer cells are fixed with 3.7% paraformaldehyde for 15 minutes and are stained with Crystal violet solution (0.5% in 25% methanol) for 30 minutes. After rinsing with water cell layers are dried and decolorized with Sorenson citrate with shaking for 20 minutes. […] Lymphoma cell growth was evaluated using MTT and cells are incubated for 4 hours.
(§3) Induction of apoptosis was assessed using a caspase 3/7 luminescent assay. Cleavage of apoptosis substrates and inhibition of c-myc was determined by western blotting, with images quantified by ImageJ after normalization with GAPDH. […] Formalin-fixed tumor and kidney sections were stained with hematoxylin and esosin and kidney sections scored using a semiquantitative scale designed to assess AKI-associated tubular injury (tubular epithelial cell loss, necrosis, tubular epithelial simplification, intratubular debris, and casts).

[13] = test system: RCC cell lines Caki-1, o-786, ACHN and SK-RC; assay: Growth and viability of RCC cell lines, 72 h exposure (crystal violet); type: cell-based, human; settings: range over all RCC cell lines tested
Experimental: as §2
Apoptosis was assessed by caspase 3/7 luminescent assay. Cleavage of apoptosis substrates was determined by western blotting. […] Formalin-fixed tumor, liver and kidney sections were stained with H&E and kidney sections were scored semiquantitativey.

Namalwa tumors = assay: Namalwa xenograft growth in mice; type: in vivo, mouse; settings: equimolar doses i.p. 3 times a week
c-myc = c-myc western blot in BL cell lines; type: cell-based, human
mouse kidneys = assay: Kidney histopathology, AKI-associated tubular injury score, Namalwa-bearing mice; settings: i.p. 3 times a week for 4 weeks
Experimental: FIG. 27 depicts in accordance with various embodiments of the invention, formalin-fixed kidney sections are stained with hematoxylin and esosin and scored using a semiquantitative scale designed to assess AKI-associated tubular injury (tubular epithelial cell loss, necrosis, tubular epithelial simplification, intratubular debris, and casts).
as §3

Compound: CC(=O)O[C@H]1CC[C@@]2(C)C(=CC[C@@H]3[C@@H]2CC[C@]2(C)C(c4cccnc4)=CC[C@@H]32)C1 [AA, abiraterone acetate]
sensitivity of cells grown as 3-D spheroids [1]: resistance with no signs of apoptosis
IC50 (Resistant C4-2B PC cells; NIR-SM 0 μM): 13.3 µM
IC50 (Resistant C4-2B PC cells; NIR-SM 0.25 μM): 3.32 µM
sensitivity of cells grown as 2D monolayers [2]: sensitive
IC50 (Naive C4-2B PC cells; read-out: AA IC50, Naive C4-2B, 2D monolayer, NIR-SM 0 μM): 6.79 µM
IC50 (Naive C4-2B PC cells; read-out: AA IC50, Naive C4-2B, 2D monolayer, NIR-SM 0.25 μM): 1.65 µM

Compound: CC(=O)O[C@@]12CO[C@@H]1C[C@H](O)[C@@]1(C)C(=O)[C@H](O)C3=C(C)[C@@H](OC(=O)[C@H](O)[C@@H](NC(=O)OC(C)(C)C)c4ccccc4)C[C@@](O)([C@@H](OC(=O)c4ccccc4)[C@H]21)C3(C)C [DT, docetaxel]
sensitivity of cells grown as 3-D spheroids [1]: resistance with no signs of apoptosis
effect on microtubules (microtubule): enhances microtubule polarization and inhibits shrinkage of microtubule length
sensitivity of cells grown as 2D monolayers [2]: sensitive

Compound: CNC(=O)c1ccc(N2C(=S)N(c3ccc(C#N)c(C(F)(F)F)c3)C(=O)C2(C)C)cc1F [EZ, enzalutamide]
sensitivity of cells grown as 3-D spheroids [1]: resistance with no signs of apoptosis
sensitivity of cells grown as 2D monolayers [2]: sensitive

Compound: CC1(C)C(=CC=C2CCCC(C=CC3=[N+](CCCCS(=O)(=O)[O-])c4ccccc4C3(C)C)=C2Cl)N(CCCCS(=O)(=O)[O-])c2ccccc21.[Na+] [NIR-783]
cell inhibition effect [3]: does not exhibit significant cell inhibition effect

Compound: CCC(C)(C)C(=O)O[C@H]1C[C@@H](C)C=C2C=C[C@H](C)[C@H](CC[C@@H]3C[C@@H](OC(=O)CCCCCN4/C(=C/C=C5\CCCC(/C=C/C6=[N+](CCCCS(=O)(=O)[O-])c7ccccc7C6(C)C)=C5Cl)C(C)(C)c5ccccc54)CC(=O)O3)[C@H]21 [NIR-SM, DZ-1-Simvastatin Conjugate]
accumulation in tumor (PC3 tumor xenograft): selective accumulation
tumor targeting (PDAC tumors): targets specifically PDAC tumors
synergy with enzalutamide (Enz) and abiraterone acetate (Abi) growth inhibition (C4-2B cells): synergizes the growth inhibitory effects of anti-androgens
synergy with docetaxel growth inhibition (C4-2B cells; conjugate at 2 uM): synergizes the growth inhibitory effects of docetaxel
effect on the growth of PC cells (human PC cell lines; 0.25 μM): marginal effects
IC50 lower than SM [4]: about 4 fold
effectiveness relative to unconjugated simvastatin [4]: more effective than unconjugated simvastatin
accumulation in PC 3D spheroids higher than in PC 2D monolayer [5]: 5 fold
sensitivity of cell growth relative to unconjugated drug [6]: more sensitive
rate of apoptosis (caspase 3/7) [7]: significantly higher rate of apoptosis
effectiveness relative to unconjugated simvastatin [8]: more effective than unconjugated simvastatin
sensitization of the cytotoxic effects of AA and EZ (Naive C4-2B PC cells; NIR-SM 0.25 μM, both control and AA/EZ resistant PC cells in the C4-2B background): 4-5 fold
IC50 [9]: 5 µM
enhancement of the cytotoxicity exerted by AA, EZ or DT [9]: 21-122 fold
potency relative to unconjugated simvastatin [10]: about 5 fold
synergized cisplatin cytotoxicity [10]: over 190 fold

IC50 (human PC cell lines; Homo sapiens, range over cell lines, dependent upon the cell types): 1 to 7 µM
Compound: CCC(C)(C)C(=O)O[C@H]1C[C@@H](C)C=C2C=C[C@H](C)[C@H](CC[C@@H]3C[C@@H](O)CC(=O)O3)[C@H]21 [SM, Simvastatin, reference compound]
IC50 ([4]; ex vivo propagated CTCs): 20 µM

Compound: N.N.[Cl][Pt][Cl] [cisplatin, reference compound]
bcl-2 expression (bcl-2): no significant changes
induction of apoptosis (caspase 3/7; caspase 9, caspase 3 and PARP) ([11]; listed as Cis): no sign of increased apoptotic activity
IC50 [12]: > 64 µM
IC50 [13]: > 64 µM

Compound: Nc1ccn([C@@H]2O[C@H](CO)[C@@H](O)C2(F)F)c(=O)n1 [gemcitabine]
sensitivity of cells grown as 2D monolayers [2]: sensitive

Compound: DZ-1-cisplatin [NIR dye-cisplatin]
tumor growth inhibition (Namalwa tumors): tumor growth inhibition and apoptotic nuclear lobulation/fragmentation
bcl-2 expression (bcl-2): no significant changes
induction of apoptosis (caspase 3/7; caspase 9, caspase 3 and PARP) [11]: induces apoptosis
c-myc expression (c-myc): downregulates
kidney toxicity (histopathology) (mouse kidneys): preserved the integrity and normal morphology of mouse kidneys
